These are literature values, as cited in patent US20220331342A1, “TREATMENT OF TRAUMATIC ENCEPHALOPATHY BY FIBROBLASTS AND THERAPEUTIC ADJUVANTS” (FIGENE, LLC, priority 2019, published 2022).

Data set [1] relates to mixed spinal cord (SC) cultures. To be noted: excitotoxins.
Data set [2] has as its system SOD1 mutant mice. To be noted: single therapy.

On to `CN(C)c1ccc(O)c2c1C[C@H]1C[C@H]3[C@H](N(C)C)C(O)=C(C(N)=O)C(=O)[C@@]3(O)C(O)=C1C2=O` [Minocycline, minocycline], for which the “first-pass metabolism when absorbed from the human gastrointestinal tract” value is “substantial first-pass metabolism”.
Take `COc1cccc(-c2cc(=O)c3ccccc3o2)c1N` [PD98059]: in data set [1], the “neuronal survival on treatment with MAPK inhibitors” value is given as “not”.
As for `Nc1nc2ccc(OC(F)(F)F)cc2s1` [Riluzole, riluzole], the onset of disease entry in data set [2] was “without affecting”.
Turning to `C[S+]([O-])c1ccc(-c2nc(-c3ccncc3)c(-c3ccc(F)cc3)[nH]2)cc1` (stereo not shown) [SB203580], in data set [1], the “neuronal survival on treatment with MAPK inhibitors” value is “increased neuronal survival”.
